Type in all cases: cell-based
For assay [1], the target named is T1, TRPA1 (Homo sapiens, UniProt O75762).
T1 construct: Human TRPA1 (NM_007332) expressed in HEK293T cells
Kind of assay: excised-patch single-channel recording and calcium imaging, […].

Assay [2] has as its target T1, TRPA1. Nature of the assay: whole-cell and excised-patch (inside-out/outside-out) patch clamp, calcium imaging. For orientation: Patch clamp records ionic current or voltage across a cell membrane.
The target in assay [3] is T2, TRPA1 (Homo sapiens, UniProt O75762, C641A).
T2 construct: hTRPA1 mutant expressed in HEK293 cells
T2 sequence (O75762 whole entry C641A): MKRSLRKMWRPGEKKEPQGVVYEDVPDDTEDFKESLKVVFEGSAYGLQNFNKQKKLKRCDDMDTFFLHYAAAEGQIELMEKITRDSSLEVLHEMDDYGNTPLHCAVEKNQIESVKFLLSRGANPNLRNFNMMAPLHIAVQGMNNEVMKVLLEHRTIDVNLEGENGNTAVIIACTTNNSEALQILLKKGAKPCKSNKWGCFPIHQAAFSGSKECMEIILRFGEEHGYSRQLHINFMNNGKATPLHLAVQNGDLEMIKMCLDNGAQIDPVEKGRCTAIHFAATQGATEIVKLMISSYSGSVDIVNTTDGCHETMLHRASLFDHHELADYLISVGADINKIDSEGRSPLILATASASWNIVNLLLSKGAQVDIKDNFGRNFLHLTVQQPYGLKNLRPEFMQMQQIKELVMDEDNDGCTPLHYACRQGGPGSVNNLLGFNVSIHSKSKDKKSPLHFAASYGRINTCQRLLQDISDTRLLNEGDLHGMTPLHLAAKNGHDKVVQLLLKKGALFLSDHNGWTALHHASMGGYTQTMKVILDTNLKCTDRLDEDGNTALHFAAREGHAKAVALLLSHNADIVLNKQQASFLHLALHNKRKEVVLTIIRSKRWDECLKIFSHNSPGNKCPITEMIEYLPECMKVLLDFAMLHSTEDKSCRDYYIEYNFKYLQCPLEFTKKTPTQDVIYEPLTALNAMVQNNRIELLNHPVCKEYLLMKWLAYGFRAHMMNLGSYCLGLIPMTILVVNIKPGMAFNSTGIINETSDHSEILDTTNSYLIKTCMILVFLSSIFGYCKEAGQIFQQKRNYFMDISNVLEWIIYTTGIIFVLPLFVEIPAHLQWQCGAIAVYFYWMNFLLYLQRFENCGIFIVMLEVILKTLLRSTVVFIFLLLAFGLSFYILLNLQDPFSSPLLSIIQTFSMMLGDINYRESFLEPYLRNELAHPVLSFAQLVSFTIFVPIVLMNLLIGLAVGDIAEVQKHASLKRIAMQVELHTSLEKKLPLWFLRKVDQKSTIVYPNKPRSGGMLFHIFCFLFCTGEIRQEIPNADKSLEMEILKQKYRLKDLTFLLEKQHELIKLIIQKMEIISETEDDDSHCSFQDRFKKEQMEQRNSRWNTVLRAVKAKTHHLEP
Nature of the assay: whole-cell patch clamp dose-response.

T1 sequence (O75762 whole entry): as the sequence (O75762 whole entry C641A) above, with A641C counted along it

Regarding `C=CCN=C=S` [AITC, allyl isothiocyanate], the “excised-patch single-channel recording and calcium imaging, 1 mM” value on TRPA1 [1] is “consistently observed in both configurations, mirroring the effects of AITC, a membrane-permeable TRPA1 agonist”.

As for `CCCCCCCCCC(=O)CC(O)S(=O)(=O)O` (stereo not drawn) [SH, sodium houttuyfonate], the EC50 on TRPA1 [2] came out at 343 ± 12.5 µM; on TRPA1 [3], 432 ± 9.72 µM.

As usually defined, the EC50 is the concentration at which the effect is half-maximal.

The values above are taken from PMC12770358, “Molecular defense strategy of volatile organic compound-emitting plants (order Piperales) against herbivorous mammals” (Communications Biology, 2025).
